Structures can show the parent of a compound that is named as a salt. Where two headings read alike, the source gives them in different places.
Tests used:
HCT-116 cell line = experiment: Inhibition of cell growth, tetrazolium salt (MTT) assay; assay type: cell-based; details: for IC50: Homo sapiens, HCT-116, 120 h, MTT, three to five days, read-out: HCT-116 IC50; for HCT-116 % Inhibition at 0.25 μM: 0.25 μM compound
Method in brief: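 McCoy's 5A cultures; 4 h pre-incubation; compound dilutions in 0.5% v/v DMSO; 3–5 d, 37° C, 5% CO2; MTT 0.2 mg/mL final, 4 h; formazan dissolved in DMSO, A540; vs 0.5% DMSO vehicle.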

CDK2/Cyclin A = CDK2/Cyclin A (Homo sapiens, UniProt P24941); experiment: Inhibition of CDK2/Cyclin A Retinoblastoma Kinase Activity; assay type: biochemical; details: for Ki: apparent Ki, CDK2/proteolyzed cyclin A, Rb fragment substrate, 25 μM ATP
Method in brief: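 Radiometric filter-binding readout of phosphate transfer to an Rb substrate fragment by purified CDK2/truncated cyclin A at 10 or 19 nM. Run at pH 7.4 with 25 μM ATP, 30 °C, 60–75 min, linear rates; background without enzyme subtracted, Ki from competitive-inhibition models.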

[1] = target: human CDK4 and genetically truncated (1-264) cyclin D3 (Homo sapiens, UniProt P11802); experiment: Inhibition of CDK4/Cyclin D Retinoblastoma Kinase Activity; assay type: biochemical; details: for Ki: apparent Ki, CDK4/truncated cyclin D3, Rb fragment substrate, 25 μM ATP
Method in brief: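 Apparent Ki values come from competitive or competitive tight-binding inhibition fits of background-corrected 32P/33P incorporation into His-tagged Rb fragment (386-928), captured on nitrocellulose. Reaction: 5 nM insect-cell-expressed human CDK4 with cyclin D3 (1-264), 25 μM ATP, pH 7.4 HEPES, 2% DMSO, 30° C., 20 min, extended to 60 min for tight-binding inhibitors.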

[2] = 0.1 μM compound, HCT-116, Table 3

Chain of human CDK4 and genetically truncated (1-264) cyclin D3 (P11802 whole entry, the tested form may be a part): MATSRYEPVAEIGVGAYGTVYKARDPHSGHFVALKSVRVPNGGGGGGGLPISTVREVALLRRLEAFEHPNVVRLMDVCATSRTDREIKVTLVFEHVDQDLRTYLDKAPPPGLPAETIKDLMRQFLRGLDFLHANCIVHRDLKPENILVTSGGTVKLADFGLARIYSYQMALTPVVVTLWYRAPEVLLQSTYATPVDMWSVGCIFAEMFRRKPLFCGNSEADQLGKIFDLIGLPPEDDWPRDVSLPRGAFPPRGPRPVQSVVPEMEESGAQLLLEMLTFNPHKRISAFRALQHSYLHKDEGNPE
Chain of human CDK4 and genetically truncated (1-264) cyclin D3 (P30281 1-264 partner): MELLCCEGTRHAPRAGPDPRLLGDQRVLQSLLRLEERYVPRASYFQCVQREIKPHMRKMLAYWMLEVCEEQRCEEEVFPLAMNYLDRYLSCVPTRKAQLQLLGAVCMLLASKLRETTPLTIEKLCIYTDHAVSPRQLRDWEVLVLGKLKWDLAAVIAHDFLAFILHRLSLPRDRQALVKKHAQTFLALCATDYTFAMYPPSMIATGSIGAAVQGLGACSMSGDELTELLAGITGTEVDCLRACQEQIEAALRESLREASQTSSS

SMILES	IC50 (HCT-116 cell line; first HCT-116 column (c4)) [nM]	IC50 (HCT-116 cell line; second HCT-116 column (c5)) [nM]	Ki (CDK2/Cyclin A) [nM]	Ki [1] [nM]	CDK2 % Inhibition at 0.03 μM (CDK2/Cyclin A; at 0.03 μM) [%]	CDK4 % Inhibition at 0.03 μM ([1]; at 0.03 μM) [%]	HCT-116 % Inhibition at 0.1 μM (HCT-116 cell line; HCT-116 cells, at 0.1 μM) [%]	HCT-116 5 Inhibition at 0.25 μM (HCT-116 cell line; HCT-116 cells)	further results
Nc1nc(NC2CCN(S(=O)(=O)c3cnc(OCCN4CCOCC4)nc3)CC2)sc1C(=O)c1c(F)cccc1F [Example H22, (4-Amino-2-{1-[2-(2-morpholin4-yl-ethoxy)-pyrimidine-5-sulfonyl]-piperidin-4-ylamino}-thiazol-5-yl)-(2,6-difluoro-phenyl)-methanone Trifluoroacetic Acid Salt]	120	300	1.2	1.1					
Nc1nc(NC2CCN(C(=O)Nc3ccc(Cl)cc3)CC2)sc1C(=O)c1c(F)cccc1F [Example O20]									HCT-116 % Inhibition at 0.25 μM (HCT-116 cell line; HCT-116, Table 2): 15%; CDK2 % Inhibition At 0.03 μM (CDK2/Cyclin A; 0.03 μM compound, Table 2): 26%; CDK4 % Inhibition at 0.03 μM ([1]; 0.03 μM compound, Table 2): 7%
Nc1nc(NC2CCN(C(=O)c3ccc(Cl)cc3Cl)CC2)sc1C(=O)c1c(F)cccc1F [Example R107]					44	63	8	48	
CC(=O)Oc1ccccc1C(=O)N1CCC(Nc2nc(N)c(C(=O)c3c(F)cccc3F)s2)CC1 [Example R113]					44	48	0	40	
CCCCOc1ccc(C(=O)N2CCC(Nc3nc(N)c(C(=O)c4c(F)cccc4F)s3)CC2)cc1 [Example Q29]									HCT-116 % Inhibition at 0.1 μM (HCT-116 cell line; 0.1 μM compound, HCT-116, Table 4): 7%; HCT-116 % Inhibition at 0.25 μM (HCT-116 cell line; HCT-116, Table 4): 50%; CDK2 % Inhibition at 0.03 μM (CDK2/Cyclin A; 0.03 μM compound, Table 4): 21%; CDK4 % Inhibition at 0.03 μM ([1]; 0.03 μM compound, Table 4): 60%
COc1ccc(C)cc1S(=O)(=O)N1CCC(Nc2nc(N)c(C(=O)c3c(F)cccc3F)s2)CC1 [Example P59]									HCT-116 % Inhibition at 0.1 μM (HCT-116 cell line; [2]): 19%; HCT-116 % Inhibition at 0.25 μM (HCT-116 cell line; HCT-116, Table 3): 24%; CDK2 % Inhibition at 0.03 μM (CDK2/Cyclin A; 0.03 μM compound, Table 3): 17%; CDK4 % Inhibition at 0.03 μM ([1]; 0.03 μM compound, Table 3): 33%
Nc1nc(NC2CCN(C(=O)c3c(Cl)cccc3Cl)CC2)sc1C(=O)c1c(F)cccc1F [Example R110]					24	30	3	48	
COc1c(C(=O)N2CCC(Nc3nc(N)c(C(=O)c4c(F)cccc4F)s3)CC2)csc1Br [Example R50]					51	44	0	48	
COCCNCCS(=O)(=O)N1CCC(Nc2nc(N)c(C(=O)c3c(F)cccc3F)s2)CC1 [Example K25, (4-Amino-2-{1-[2-(2-methoxy-ethylamino}-ethanesulfonyl]-piperidin-4-ylamino}-thiazol-5-yl)-(2,6-difluoro-phenyl)-methanone Trifluoroacetic Acid Salt.]	880	2600	4.4	1.4					
CC1CCCC(NCCS(=O)(=O)N2CCC(Nc3nc(N)c(C(=O)c4c(F)cccc4F)s3)CC2)C1 (mixture of isomers) [Example K43, (4-Amino-2-{1-[2-(3(cis/trans)-methyl-cyclohexylamino)-ethanesulfonyl]-piperidin-4-ylamino}-thiazol-5-yl)-(2,6-difluoro-phenyl)-methanone]	51	300	0.57	2.4					
COc1ccc(S(=O)(=O)N2CCC(Nc3nc(N)c(C(=O)c4c(F)cccc4F)s3)CC2)cc1OC [Example P38]									HCT-116 % Inhibition at 0.1 μM (HCT-116 cell line; [2]): 15%; HCT-116 % Inhibition at 0.25 μM (HCT-116 cell line; HCT-116, Table 3): 35%; CDK2 % Inhibition at 0.03 μM (CDK2/Cyclin A; 0.03 μM compound, Table 3): 73%; CDK4 % Inhibition at 0.03 μM ([1]; 0.03 μM compound, Table 3): 74%
CCCCS(=O)(=O)N1CCC(Nc2nc(N)c(C(=O)c3c(F)cccc3F)s2)CC1 [Example P27]									HCT-116 % Inhibition at 0.1 μM (HCT-116 cell line; [2]): 4%; HCT-116 % Inhibition at 0.25 μM (HCT-116 cell line; HCT-116, Table 3): 23%; CDK2 % Inhibition at 0.03 μM (CDK2/Cyclin A; 0.03 μM compound, Table 3): 16%; CDK4 % Inhibition at 0.03 μM ([1]; 0.03 μM compound, Table 3): 41%
CN(C)CCN(C)c1ccc(C(=O)N2CCC(Nc3nc(N)c(C(=O)c4c(F)cccc4F)s3)CC2)cn1 [Example G32, 1-{4-Amino-2-[1-(1-{6-[(2-dimethylamino-ethyl)-methyl-amino]-pyridin-3-yl}-methanoyl)-piperidin-4-ylamino]-thiazol-5-yl}-1-(2,6-difluoro-phenyl)-methanone Trifluoroacetic Acid Salt]	4700	> 5000	60	42					
